In US20030065039A1, “Biologically active 1,3-bis-aromatic-prop-2-en-1-ones, 1,3-bis-aromatic-propan-1-ones, and 1,3-bis-aromatic-prop-2-yn-1-ones” (Statens Serum Institute, priority 1997, published 2003):

What was measured:
Format in all cases: cell-based
[1] = system: TNF-α; assay: TNF-α production by human peripheral blood mononuclear cells, culture supernatant (ELISA)
Experimental: Cells: Peripheral blood mononuclear cells obtained from healthy individuals. The cells were separated by a conventional method lymphoprep) and suspended in RMPI 1640 containing 5% human serum.
Stimulation of cytokine-release from human mononuclear cells: Human peripheral blood mononuclear cells from Danish donors were suspended in 1-10% (v/v) human serum in RPMI 1640 and adjusted to 2×10^6 cells per ml. 0.1 ml volumes were then dispensed into wells of 96-well microtiter plates. […] In some experiments cells were preincubated with drugs for 2 hrs before addition of stimulation antigens. The cultures were incubated overnight for TNF-α and IL-6 assays.
Supernatants were collected and assayed for TNF-α, IL-1α and IL-6 by ELISA procedures (Jakobsen et al., 1993, Fomsgaard et al., 1988, Hansen et al., 1991) with the following modifications. ELISA Maxisorp plates (Nunc, Roskilde, Denmark) were coated for 24 hrs at 4 C with 100 μl per well of 2.5 μg/ml rabbit polyclonal IgG to human recombinant TNF, IL-1α or IL-6 in 100 mM sodiumhydrogencarbonate. Non-attached sites were blocked for 1 h by 200 μl per well of 2% human serum slbumin in PBS (1 h at 37° C.), and the wells were washed 4 times in 2.5% NaCl, 0.1% Tween 20 (Merck, Darmstadt, Germany). This washing procedure was done after each of the following incubating steps:
1) 100 μl culture supernatants made to 50% (v/v) in incubation buffer (4% (v/v) normal rabbit serum, DAKO code X902), 1% polyethylene glycol (MW 6,000), 2.5% NaCl, 0.1% Tween 20 in phosphate buffered saline (PBS) were incubated 2 hrs at 37° C., dilutions of native as well as recombinant cytokine standards in the same incubation buffer were asssayed in parallel with the tested supernatants,
2) 100 μl per well of biotinilated rabbit antibodies to recombinant TNF-α, IL-1α or IL-6 (1.5 μg/ml in 0.5% human serum albumin, 0.1% Tween 20 in PBS) were added at 37° for 2 hrs,
3) […] per well of a 1:1000 dilution of streptavidin-peroxidase (Amersham, UK), at room temperature for 30 min.
Enzyme activities were quantitated after addition of 100 μl per well of 0.67 mg/ml 1,2-phenyldiamine hydrochloride (DAKO) dissolved in 100 mM citric acid-phosphate buffer, pH 5.0 containing 0.015% (v/v) H2O2. The reactions were stopped by adding 50 μl per well of 2.5 M H2SO4, and the optical densities are measured in an ELISA scanner at 490 nm against a test reference at 620 nm.
Assay: The compounds were prepared as stock solution at a concentration of 1 mg/ml in medium containing 10% DMSO. The dilutions were made in medium. The cells were stimulated with either SPAG (a malaria antigen TNF-inducer) or bacterial LPS. The supernatant of cell cultures were assayed for TNF-α using a commercial ELISA kit.

[2] = system: Leishmania promastigotes; assay: Leishmania promastigotes Assay; conditions: Leishmania; promastigotes, 3H-thymidine uptake; read-out: Leishmania IC50 ± SD
Method in brief: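 L. major (WHO Iran vaccine strain) and L. donovani MHOM/KE/85/NLB 274 promastigotes (3×10^6/ml, day 3 and 6 cultures) exposed to compound 2 h at 26 °C, then 3H-thymidine 18 h; incorporation counted by scintillation. Microscopic counts and flagellar motility also assessed.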

[3] = system: human lymphocytes; assay: Lymphocyte Proliferation Assay; conditions: Lymphocyte; PHA provoked proliferation of human lymphocytes; read-out: Lymphocytes IC50 ± SD
Method in brief: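 Ficoll-isolated human blood mononuclear cells (0.63×10^5/ml) in RPMI 1640 with 5% FCS were cultured in triplicate with test compound and PHA or PPD for 3 or 7 days. Proliferation measured by ^3H-thymidine incorporation over the final 24 h; triplicate median recorded.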

[4] = system: Plasmodium falciparum; assay: Plasmodium falciparum Assay; conditions: Plasmodium falciparum; 3-H-hypoxanthine incorporation, 48 hours; read-out: Plasmodium IC50 ± SD
Method in brief: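 Parasitized erythrocytes (~1% parasitemia, 5×10^8/ml) cultured 48 h in RPMI with test compound, with 3H-hypoxanthine added for the last 24 h. Growth inhibition read as 3H-hypoxanthine incorporation into parasite DNA by liquid scintillation; uninfected and untreated infected cultures run in parallel.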

[5] = Experiment 1, LPS, 12.5 μg/ml, Control 1.17
[6] = Experiment 1, LPS, 25 μg/ml, Control 1.17
[7] = Experiment 1, LPS, 50 μg/ml, Control 1.17
[8] = Experiment 1, LPS, 100 μg/ml, Control 1.17
[9] = Experiment 1, SPAG, 12.5 μg/ml, Control 3.73
[10] = Experiment 1, SPAG, 25 μg/ml, Control 3.73
[11] = Experiment 1, SPAG, 50 μg/ml, Control 3.73
[12] = Experiment 1, SPAG, 100 μg/ml, Control 3.73
[13] = Experiment 2, LPS, 1.562 μg/ml, Control 2.06
[14] = Experiment 2, LPS, 3.125 μg/ml, Control 2.06
[15] = Experiment 2, LPS, 6.25 μg/ml, Control 2.06
[16] = Experiment 2, LPS, 12.5 μg/ml, Control 2.06
[17] = Experiment 2, SPAG, 1.562 μg/ml, Control 2.28
[18] = Experiment 2, SPAG, 3.125 μg/ml, Control 2.28
[19] = Experiment 2, SPAG, 6.25 μg/ml, Control 2.28
[20] = Experiment 2, SPAG, 12.5 μg/ml, Control 2.28

SMILES | TNF-α production (OD values) [1, 5] [OD] | TNF-α production (OD values) [1, 6] [OD] | TNF-α production (OD values) [1, 7] [OD] | TNF-α production (OD values) [1, 8] [OD] | TNF-α production (OD values) [1, 9] [OD] | TNF-α production (OD values) [1, 10] [OD] | TNF-α production (OD values) [1, 11] [OD] | TNF-α production (OD values) [1, 12] [OD] | TNF-α production (OD values) [1, 13] [OD] | TNF-α production (OD values) [1, 14] [OD] | TNF-α production (OD values) [1, 15] [OD] | TNF-α production (OD values) [1, 16] [OD] | TNF-α production (OD values) [1, 17] [OD] | TNF-α production (OD values) [1, 18] [OD] | TNF-α production (OD values) [1, 19] [OD] | TNF-α production (OD values) [1, 20] [OD] | IC50 [2] [µM] | IC50 [3] [µM] | IC50 [4] [µM]
COc1cc(/C=C/C(=O)c2ccccc2F)cc(OC)c1 [PH135, 2′-fluoro-3,5-dimethoxychalcone] | 0.01 | 0.01 | 0.01 | 0.02 | 0.02 | 0.01 | 0.01 | 0.01 | 0.89 | 0.49 | 0.09 | 0.04 | 0.93 | 0.04 | 0.03 | 0.01 | 3.5 ± 0.8 | 6 ± 0.4 | 8.7
COc1cc(/C=C/C(=O)c2cccc(F)c2)cc(OC)c1 [PH136, 3′-fluoro-3,5-dimethoxychalcone] | 0.00 | 0.00 | 0.00 | 0.01 | 0.01 | 0.00 | 0.01 | 0.00 | 1.70 | 1.81 | 2.18 | 0.08 | 3.29 | 4.00 | 1.39 | 0.02 | 5.5 ± 0.3 | 9.2 ± 0.5 | 8.1
